Experimental data reported in a compilation of properties of binary mixtures (doi:10.1016/j.jct.2019.105906).

Assay: xn = mol fraction of the nth substance listed
Conditions: 100 kPa

CCCC[n+]1ccn(C)c1.F[P-](F)(F)(F)(F)F + CCOC(C)=O
speed of sound [m/s]
Conditions	x1 = 0.1012	x1 = 0.1992	x1 = 0.312	x1 = 0.3985	x1 = 0.5056	x1 = 0.5996	x1 = 0.7054	x1 = 0.7963	x1 = 0.9185	x1 = 1
298.15 K	1182.1	1223.3	1269.2	1302	1337.9	–	1391.7	1410.1	1430.5	1443.8
303.15 K	1161.8	1205	1252.8	–	–	–	1378.8	1397.4	–	1431.7
308.15 K	1141.8	1186.7	–	–	–	1339.5	1366	–	1405.6	1419.8
313.15 K	1121.4	–	1220.1	1256	1297.5	1325.9	1353.2	1371.9	–	–
318.15 K	1101.1	–	1203.7	1240.6	–	1312.6	1340.4	–	–	–
323.15 K	1081	1132.1	1187.3	1225.2	–	1299.1	1327.5	1346.6	1368.4	1385.6

CCOC(C)=O + CCCC[n+]1ccn(C)c1.F[P-](F)(F)(F)(F)F
x2 = 0
Conditions	speed of sound [m/s]
303.15 K	1120.8
308.15 K	1098.7
313.15 K	1076.4
318.15 K	1054.1
323.15 K	1032
